Our source for the IC50 values is US20240051985A1, “METTL3 MODULATORS” (ACCENT THERAPEUTICS, INC., priority 2020, published 2024).

A word on the IC50: it is the concentration that gives 50% inhibition. Low readings indicate higher potency, high ones lower potency.

Sequence of METTL3/METTL14 (Q86U44 whole entry, species assumed): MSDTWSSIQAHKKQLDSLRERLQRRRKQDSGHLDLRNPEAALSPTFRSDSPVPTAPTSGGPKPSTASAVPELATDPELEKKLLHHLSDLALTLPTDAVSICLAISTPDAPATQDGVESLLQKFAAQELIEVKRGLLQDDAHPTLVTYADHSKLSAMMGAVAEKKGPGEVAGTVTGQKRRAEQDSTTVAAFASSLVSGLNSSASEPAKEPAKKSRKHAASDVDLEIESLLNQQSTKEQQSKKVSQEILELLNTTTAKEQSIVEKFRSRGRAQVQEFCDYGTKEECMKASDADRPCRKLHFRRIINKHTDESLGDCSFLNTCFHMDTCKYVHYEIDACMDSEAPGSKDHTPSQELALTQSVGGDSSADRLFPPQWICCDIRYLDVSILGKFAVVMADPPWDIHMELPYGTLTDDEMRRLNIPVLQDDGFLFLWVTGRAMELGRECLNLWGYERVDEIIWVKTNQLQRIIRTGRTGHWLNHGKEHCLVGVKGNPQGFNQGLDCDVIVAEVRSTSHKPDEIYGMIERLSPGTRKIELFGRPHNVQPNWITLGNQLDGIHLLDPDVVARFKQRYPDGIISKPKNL
Sequence of METTL3/METTL14 (Q9HCE5 whole entry partner, species assumed): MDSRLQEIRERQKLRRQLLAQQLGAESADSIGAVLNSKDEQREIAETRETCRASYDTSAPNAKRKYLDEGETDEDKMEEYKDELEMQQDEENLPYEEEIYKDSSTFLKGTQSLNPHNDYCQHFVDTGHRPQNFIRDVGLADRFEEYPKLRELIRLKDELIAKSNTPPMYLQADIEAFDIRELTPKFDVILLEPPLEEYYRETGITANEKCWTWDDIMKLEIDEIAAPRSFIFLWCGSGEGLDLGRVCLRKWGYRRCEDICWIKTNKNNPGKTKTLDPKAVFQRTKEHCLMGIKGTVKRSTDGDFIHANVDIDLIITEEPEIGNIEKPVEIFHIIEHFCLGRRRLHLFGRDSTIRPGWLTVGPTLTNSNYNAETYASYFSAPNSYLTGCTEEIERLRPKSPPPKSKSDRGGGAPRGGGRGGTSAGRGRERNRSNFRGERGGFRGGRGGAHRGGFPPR

The first assay deals with METTL3/METTL14 (Homo sapiens, UniProt Q86U44). As to the kind of experiment: METTL3-14 standard enzyme assay (3H-SAM flashplate). The note with it: Table 4; METTL3 biochemical assay. An outline of the steps:
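Radiometric methyltransferase read-out: after quenching with excess unlabelled SAM (15 μM), biotinylated RNA was captured on streptavidin flashplates (2 h, 25° C) and counted. Reactions contained 2.5 nM enzyme (5 min preincubation), 100 nM RNA and 100 nM 3H-SAM, ran 30 min in HEPES pH 7.5 buffer with KCl, MgCl2, DTT.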
In turn, `CN1CCC(NC(=O)[C@H]2O[C@@H](n3cc(-c4ccn(C)n4)c4c(N)ncnc43)[C@H](O)[C@@H]2O)CC1=O` (stereo partly shown) [Compound I-186] yielded an IC50 of no less than 1 µM.

`CN1[C@@H]2CC[C@H]1C[C@@H](NC(=O)[C@H]1O[C@@H](n3cc(-c4ccn(C)n4)c4c(N)ncnc43)[C@H](O)[C@@H]1O)C2` [Compound I-187] registered an IC50 of 0.1 to 1 µM.

Compound `Cn1ccc(-c2cn([C@@H]3O[C@H](C(=O)NC4CCc5cnc(N)nc5C4)[C@@H](O)[C@H]3O)c3ncnc(N)c23)n1` (stereo partly shown) [Compound I-188] returned an IC50 of 0.1 to 1 µM.

With `Cn1ccc(-c2cn([C@@H]3O[C@H](C(=O)NC4CCNC(C)(C)C4)[C@@H](O)[C@H]3O)c3ncnc(N)c23)n1` (stereo partly shown) [Compound I-189], the IC50 lay in the range of 0.1 to 1 µM.

The compound `C[C@H]1C[C@H](NC(=O)[C@H]2O[C@@H](n3cc(-c4ccn(C)n4)c4c(N)ncnc43)[C@H](O)[C@@H]2O)CCN1` [Compound I-190] showed an IC50 of no less than 1 µM.

`Cn1ccc(-c2cn([C@@H]3O[C@H](C(=O)NC4CCc5nc[nH]c5C4)[C@@H](O)[C@H]3O)c3ncnc(N)c23)n1` (stereo partly shown) [Compound I-194]: the IC50 fell in the range of 0.01 to 0.1 µM.

`C[C@H](NC(=O)[C@H]1O[C@@H](n2cc(-c3ccn(C)n3)c3c(N)ncnc32)[C@H](O)[C@@H]1O)C1CCNCC1` [Compound I-195] showed an IC50 of 0.1 to 1 µM.

For the next assay, the target named is PRMT5-MEP50 (Homo sapiens, UniProt O14744). As to the kind of experiment: PRMT5 assay (3H-SAM flashplate). The note with it: Table 4; PRMT5 biochemical assay. An outline of the steps: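 Radiometric methyl-transfer read-out: 3H-methyl transferred to a 3′-biotinylated, acetylated H4 peptide substrate (100 nM) from 3H-SAM (250 nM), captured on streptavidin scintillation plates. Enzyme complex 2.5 nM, pH 8.0 Tris buffer with DTT and Tween, compound preincubation 5 min, 60 min reaction stopped with excess unlabeled SAM.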
Sequence of PRMT5-MEP50 (O14744 whole entry): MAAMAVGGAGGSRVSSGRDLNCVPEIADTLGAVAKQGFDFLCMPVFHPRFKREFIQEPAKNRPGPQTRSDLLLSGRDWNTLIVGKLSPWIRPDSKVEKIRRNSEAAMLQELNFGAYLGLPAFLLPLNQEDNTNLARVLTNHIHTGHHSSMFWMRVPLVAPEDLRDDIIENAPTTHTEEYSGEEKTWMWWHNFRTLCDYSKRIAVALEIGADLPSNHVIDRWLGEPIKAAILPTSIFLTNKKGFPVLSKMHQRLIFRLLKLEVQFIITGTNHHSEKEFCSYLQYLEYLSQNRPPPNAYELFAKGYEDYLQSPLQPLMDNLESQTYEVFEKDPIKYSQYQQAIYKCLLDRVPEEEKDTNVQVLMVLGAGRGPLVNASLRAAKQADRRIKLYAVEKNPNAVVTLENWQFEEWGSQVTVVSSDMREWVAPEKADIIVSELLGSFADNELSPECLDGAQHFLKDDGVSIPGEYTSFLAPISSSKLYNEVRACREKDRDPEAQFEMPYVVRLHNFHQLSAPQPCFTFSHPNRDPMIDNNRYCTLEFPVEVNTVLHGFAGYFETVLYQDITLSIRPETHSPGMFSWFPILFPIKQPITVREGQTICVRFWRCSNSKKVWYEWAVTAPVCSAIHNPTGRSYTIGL
Sequence of PRMT5-MEP50 (Q9BQA1 whole entry partner): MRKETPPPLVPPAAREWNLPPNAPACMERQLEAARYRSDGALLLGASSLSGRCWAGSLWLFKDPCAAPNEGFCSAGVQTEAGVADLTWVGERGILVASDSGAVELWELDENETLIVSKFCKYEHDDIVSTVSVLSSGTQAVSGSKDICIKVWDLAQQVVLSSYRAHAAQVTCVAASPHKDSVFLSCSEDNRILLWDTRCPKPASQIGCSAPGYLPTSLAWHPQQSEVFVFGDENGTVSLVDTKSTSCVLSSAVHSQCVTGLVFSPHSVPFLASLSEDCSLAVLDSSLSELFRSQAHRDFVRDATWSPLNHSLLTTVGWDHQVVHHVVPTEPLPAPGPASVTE
For the compound `CN1CCC(NC(=O)[C@H]2O[C@@H](n3cc(-c4ccn(C)n4)c4c(N)ncnc43)[C@H](O)[C@@H]2O)CC1=O` (stereo partly shown) [Compound I-186], the IC50 is no less than 1 µM.

`CN1[C@@H]2CC[C@H]1C[C@@H](NC(=O)[C@H]1O[C@@H](n3cc(-c4ccn(C)n4)c4c(N)ncnc43)[C@H](O)[C@@H]1O)C2` [Compound I-187] gave an IC50 of 0.01 to 0.1 µM.

Take `Cn1ccc(-c2cn([C@@H]3O[C@H](C(=O)NC4CCc5cnc(N)nc5C4)[C@@H](O)[C@H]3O)c3ncnc(N)c23)n1` (stereo partly shown) [Compound I-188]: the IC50 fell in the range of 0.1 to 1 µM.

In the case of `Cn1ccc(-c2cn([C@@H]3O[C@H](C(=O)NC4CCNC(C)(C)C4)[C@@H](O)[C@H]3O)c3ncnc(N)c23)n1` (stereo partly shown) [Compound I-189], the IC50 lay in the range of 0.01 to 0.1 µM.

`C[C@H]1C[C@H](NC(=O)[C@H]2O[C@@H](n3cc(-c4ccn(C)n4)c4c(N)ncnc43)[C@H](O)[C@@H]2O)CCN1` [Compound I-190] had an IC50 of no less than 1 µM.

In turn, `Cn1ccc(-c2cn([C@@H]3O[C@H](C(=O)NC4CCc5nc[nH]c5C4)[C@@H](O)[C@H]3O)c3ncnc(N)c23)n1` (stereo partly shown) [Compound I-194] displayed a concentration for half-maximal inhibition (IC50) of 0.1 to 1 µM.

For the compound `C[C@H](NC(=O)[C@H]1O[C@@H](n2cc(-c3ccn(C)n3)c3c(N)ncnc32)[C@H](O)[C@@H]1O)C1CCNCC1` [Compound I-195], the IC50 lay within 0.1 to 1 µM.

A further assay deals with T1, FLT3 (Homo sapiens, UniProt P36888).
T1 sequence (P36888 27-993): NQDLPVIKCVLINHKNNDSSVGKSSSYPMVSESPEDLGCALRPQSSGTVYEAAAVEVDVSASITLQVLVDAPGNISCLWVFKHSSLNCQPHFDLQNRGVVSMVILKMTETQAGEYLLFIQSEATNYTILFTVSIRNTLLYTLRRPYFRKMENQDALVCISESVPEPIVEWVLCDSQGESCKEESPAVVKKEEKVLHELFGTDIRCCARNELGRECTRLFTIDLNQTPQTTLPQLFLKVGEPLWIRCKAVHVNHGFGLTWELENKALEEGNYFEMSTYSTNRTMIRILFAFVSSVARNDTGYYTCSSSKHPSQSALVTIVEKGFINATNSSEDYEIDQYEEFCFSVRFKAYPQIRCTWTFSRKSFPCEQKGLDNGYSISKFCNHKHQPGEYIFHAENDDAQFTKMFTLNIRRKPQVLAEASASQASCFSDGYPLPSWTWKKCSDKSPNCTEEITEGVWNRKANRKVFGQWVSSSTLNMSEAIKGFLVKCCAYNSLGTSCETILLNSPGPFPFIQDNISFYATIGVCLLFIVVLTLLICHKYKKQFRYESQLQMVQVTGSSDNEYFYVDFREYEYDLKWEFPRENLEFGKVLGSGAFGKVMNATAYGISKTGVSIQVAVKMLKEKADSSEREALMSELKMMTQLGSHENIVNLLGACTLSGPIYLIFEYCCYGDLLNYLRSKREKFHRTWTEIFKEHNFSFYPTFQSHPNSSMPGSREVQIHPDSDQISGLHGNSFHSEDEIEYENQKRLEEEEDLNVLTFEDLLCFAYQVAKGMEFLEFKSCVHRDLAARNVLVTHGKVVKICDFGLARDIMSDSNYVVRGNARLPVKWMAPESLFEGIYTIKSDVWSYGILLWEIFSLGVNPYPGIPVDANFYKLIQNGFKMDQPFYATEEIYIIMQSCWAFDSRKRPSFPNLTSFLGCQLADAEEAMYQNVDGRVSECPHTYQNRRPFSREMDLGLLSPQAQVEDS
As to the kind of experiment: FLT3 LanthaScreen assay. Type of assay: biochemical. The note with it: Table 4. As to the method:
(§1) FLT3/FLT3-ITD LanthaScreen Assays
(§2) Assays were performed in a 10 μl-volume in 384-well polypropylene microplates (Perkin Elmer Proxiplate, cat. No. 6059480) at ambient temperature. Optimized 1× assay buffer was 50 mM Hepes pH 7.5, 2 mM DTT, 0.01% Tween, 0.01% BSA, 10 mM MgCl2. For compound screening FLT3 (final concentration, f.c.=[…]) or FLT3-ITD (f.c.=[…]) was added using a Multidrop Combi (ThermoFisher Scientific, Waltham, MA) and preincubated for 10 min. Reactions were started by adding fluorescein-poly GT (f.c.=200 nM) and ATP (f.c.=57 μM) substrates. Reactions proceeded for 40 minutes. The reactions were stopped with a detection mixture of EDTA (f.c.=20 mM) and terbium-conjugated anti-phoso tyrosine antibody pY20 (f.c.=2 nM). The plates were sealed and read on an Envision (PerkinElmer, Waltham, MA) using 340 nm excitation and emission reads at 495 and 520 nM.
Background: TR-FRET usually uses a lanthanide donor and a delayed reading to cut background.
For `CN1CCC(NC(=O)[C@H]2O[C@@H](n3cc(-c4ccn(C)n4)c4c(N)ncnc43)[C@H](O)[C@@H]2O)CC1=O` (stereo partly shown) [Compound I-186], the IC50 was no less than 1 µM.

`CN1[C@@H]2CC[C@H]1C[C@@H](NC(=O)[C@H]1O[C@@H](n3cc(-c4ccn(C)n4)c4c(N)ncnc43)[C@H](O)[C@@H]1O)C2` [Compound I-187] showed an IC50 of no less than 1 µM.

In turn, `Cn1ccc(-c2cn([C@@H]3O[C@H](C(=O)NC4CCc5cnc(N)nc5C4)[C@@H](O)[C@H]3O)c3ncnc(N)c23)n1` (stereo partly shown) [Compound I-188] yielded a half-inhibitory concentration (IC50) of no less than 1 µM.

`Cn1ccc(-c2cn([C@@H]3O[C@H](C(=O)NC4CCNC(C)(C)C4)[C@@H](O)[C@H]3O)c3ncnc(N)c23)n1` (stereo partly shown) [Compound I-189] gave an IC50 of no less than 1 µM.

In turn, `C[C@H]1C[C@H](NC(=O)[C@H]2O[C@@H](n3cc(-c4ccn(C)n4)c4c(N)ncnc43)[C@H](O)[C@@H]2O)CCN1` [Compound I-190] displayed an IC50 of no less than 1 µM.

On to `Cn1ccc(-c2cn([C@@H]3O[C@H](C(=O)NC4CCc5nc[nH]c5C4)[C@@H](O)[C@H]3O)c3ncnc(N)c23)n1` (stereo partly shown) [Compound I-194], for which the IC50 is no less than 1 µM.

In turn, `C[C@H](NC(=O)[C@H]1O[C@@H](n2cc(-c3ccn(C)n3)c3c(N)ncnc32)[C@H](O)[C@@H]1O)C1CCNCC1` [Compound I-195] showed an IC50 of no less than 1 µM.

Another assay addresses T2, FLT3-ITD (Homo sapiens, UniProt P36888).
T2 sequence (P36888 1-993): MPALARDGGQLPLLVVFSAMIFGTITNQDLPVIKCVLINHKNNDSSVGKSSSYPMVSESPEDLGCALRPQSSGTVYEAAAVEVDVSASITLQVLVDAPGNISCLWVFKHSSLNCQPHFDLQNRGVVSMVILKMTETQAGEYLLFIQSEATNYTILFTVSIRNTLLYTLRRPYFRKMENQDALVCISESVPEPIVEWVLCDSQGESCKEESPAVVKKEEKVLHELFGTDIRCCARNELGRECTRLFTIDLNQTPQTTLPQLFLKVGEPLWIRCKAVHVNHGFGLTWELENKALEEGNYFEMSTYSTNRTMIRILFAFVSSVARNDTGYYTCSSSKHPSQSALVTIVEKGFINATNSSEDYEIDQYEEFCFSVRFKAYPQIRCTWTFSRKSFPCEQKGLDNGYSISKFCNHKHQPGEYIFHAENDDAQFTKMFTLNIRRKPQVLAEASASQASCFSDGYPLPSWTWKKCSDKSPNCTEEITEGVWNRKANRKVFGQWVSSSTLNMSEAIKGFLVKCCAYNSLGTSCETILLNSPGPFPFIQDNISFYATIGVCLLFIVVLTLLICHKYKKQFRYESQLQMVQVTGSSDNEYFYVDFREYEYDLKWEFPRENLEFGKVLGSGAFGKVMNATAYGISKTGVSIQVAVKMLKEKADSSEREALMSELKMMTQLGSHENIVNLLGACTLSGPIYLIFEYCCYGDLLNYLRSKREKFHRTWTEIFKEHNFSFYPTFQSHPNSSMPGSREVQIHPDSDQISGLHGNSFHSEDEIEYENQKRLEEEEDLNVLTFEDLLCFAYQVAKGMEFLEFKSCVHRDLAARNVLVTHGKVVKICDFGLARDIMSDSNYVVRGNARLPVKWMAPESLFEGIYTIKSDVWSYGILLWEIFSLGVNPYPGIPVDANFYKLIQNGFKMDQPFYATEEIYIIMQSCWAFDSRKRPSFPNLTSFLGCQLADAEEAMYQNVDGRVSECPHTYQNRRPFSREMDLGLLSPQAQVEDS
In words: FLT3-ITD LanthaScreen assay. Type of assay: biochemical. The following applies: Table 4. As to the method:
as §1, §2
`CN1CCC(NC(=O)[C@H]2O[C@@H](n3cc(-c4ccn(C)n4)c4c(N)ncnc43)[C@H](O)[C@@H]2O)CC1=O` (stereo partly shown) [Compound I-186] had an IC50 of no less than 1 µM.

For `CN1[C@@H]2CC[C@H]1C[C@@H](NC(=O)[C@H]1O[C@@H](n3cc(-c4ccn(C)n4)c4c(N)ncnc43)[C@H](O)[C@@H]1O)C2` [Compound I-187], the IC50 is no less than 1 µM.

In the case of `Cn1ccc(-c2cn([C@@H]3O[C@H](C(=O)NC4CCc5cnc(N)nc5C4)[C@@H](O)[C@H]3O)c3ncnc(N)c23)n1` (stereo partly shown) [Compound I-188], the IC50 was no less than 1 µM.

In the case of `Cn1ccc(-c2cn([C@@H]3O[C@H](C(=O)NC4CCNC(C)(C)C4)[C@@H](O)[C@H]3O)c3ncnc(N)c23)n1` (stereo partly shown) [Compound I-189], the IC50 is no less than 1 µM.

For the compound `C[C@H]1C[C@H](NC(=O)[C@H]2O[C@@H](n3cc(-c4ccn(C)n4)c4c(N)ncnc43)[C@H](O)[C@@H]2O)CCN1` [Compound I-190], the IC50 was no less than 1 µM.

`Cn1ccc(-c2cn([C@@H]3O[C@H](C(=O)NC4CCc5nc[nH]c5C4)[C@@H](O)[C@H]3O)c3ncnc(N)c23)n1` (stereo partly shown) [Compound I-194] had an IC50 of no less than 1 µM.

With `C[C@H](NC(=O)[C@H]1O[C@@H](n2cc(-c3ccn(C)n3)c3c(N)ncnc32)[C@H](O)[C@@H]1O)C1CCNCC1` [Compound I-195], the IC50 was no less than 1 µM.
